pIC50: −log10 of the molar value. Converted amounts (≈) assume the structure as drawn. Where two headings read alike, the source gives them in different places.
Experiments:
[1] = test system: E. col ATCC 25922 LepB(P84L); assay: In vitro antimicrobial activity, MIC by broth micro-dilution; assay type: cell-based, E. coli; conditions: for MIC: Escherichia coli, ATCC25922, read-out: MIC class, E. col ATCC 25922 LepB(P84L)
Method: (§1) In vitro antimicrobial activity of each compound was determined by measuring minimal inhibitor concentrations (MICs) using the broth micro-dilution technique as approved by the Clinical and Laboratory Standards Institute (CLSI). The microbiological panel examined contains a number of bacterial species including E. coli MG1655, P. aeruginosa, S. aureus, and S. epidermidis. In addition, the panel includes previously described pseudo-isogenic strains of these four species (P. A. Smith et al. Chem Biol 2010, 1223-1231), in which a specific proline residue in SPase (called LepB in Gram-negative organisms an SpsB in Gram-positive organisms) has been mutated to a different amino acid. The resulting strains have increased susceptibility to the arylomycin class of antibiotics. Analysis of the strains lacking this proline residue will increases the dynamic range of the assay, and comparison of the sensitivities of the isogenic pairs provides ongoing confirmation that the activity gained through derivatization is specific to the inhibition of SPase. Briefly, bacterial streaks were grown on Mueller Hinton Agar II (Difco™) with or without 5% lysed horse blood for a period of 24 hours at either 35° C. or 28° C. Bacterial colonies were suspended in cation adjusted Mueller Hinton broth and diluted to a final concentration of 1*10^7 colony forming units/ml. Two-fold serial dilutions of each compound were arrayed into 96-well plates (100 μl final volume per well) and 5 ul of the bacterial suspension will be added. […] MICs were periodically checked plating serial dilutions of MIC wells and quantitatively determining viable colonies.

E. coli SPase = molecular target: T1, E. coli SPase (Escherichia coli, UniProt P00803); assay: Enzymatic fluorogenic substrate cleavage assay for IC50; assay type: biochemical
T1 construct: Full length His-tagged E. coli SPase proteins were expressed in E. coli BL21(DE3); His-tag; made in house; host or cells: E. coli BL21(DE3)
Method: (§2) Full length His-tagged E. coli SPase proteins were expressed in E. coli BL21(DE3) containing the plasmid pET23-lepB, P. A. Smith et al. Chem Biol 2010, 1223-1231. Briefly, saturated overnight cultures grown in 20 ml of Luria-Bertani medium supplemented with ampicillin were subcultures into 1.5 L of Luria-Bertani, and shaken at 37° C. until an optical density at 600 nm of 0.4-0.5 was achieved. Protein expression was induced with Isopropyl β-D-1-thiogalactopyranoside (ITPG) at a final concentration of […], and purified using nickel affinity chromatography. Full length His-tagged S. aureus SPase protein was expressed similarly from E. coli BL21(DE3) containing the plasmid pCDF1-SaSpsB or pCDF1-SaSpsB(P29S) and purified similarly to the E. coli protein with the following exceptions. SPase protein was solubilized using 300 mM NaCl, 20 mM Tris pH 8.06, 5 mM Imidazole, 10% glycerol, 1% Triton X-100, prior to purification in Ni-NTA Superflow resin and resin bound protein was washed in a similar buffer containing 1% Elugent in place of Triton X-100 prior to protein eluted in wash buffer supplemented with 300 mM imidazole. Protein purify was judged to exceed 95% by visual inspection of SDS-PAGE followed by Comassie staining. All protein concentrations were determined by BCA assay.
(§3) In addition to the equilibrium binding assays, compound activity is also characterized by measuring inhibition of E. coli and S. aureus substrate cleavage reactions using fluorogenic peptides developed at RQx Pharmaceuticals. Briefly, two fluorogenic peptide substrates (decanoyl-LSSPA Y^NO2 A ? ADK^abzPD (SEQ ID NO: 1) and decanyol-LTPTAY^NO2 A ? ASKK^abzDD (SEQ ID NO: 2)) have been synthesized, where abz is the fluorescence donor 2-aminobenzamide, YNO2 is the fluorescence acceptor 3-nitrotyrosine, and the cleavage site is indicated with an arrow. These substrates are processed with a second order rate constant (Kcat/KM) of 10^5 M^−1s^−1 for E. coli and S. aureus SPase enzymes, and cleavage results in a greater than 10-fold increase in fluorescence signal (excitation at 314 nm, emission at 416 nm) as measured using a SpectraMax M2 fluorescence microplate reader. Two-folder serial dilutions of compound are prepared in cleavage reaction buffer consisting of: 50 mM Tris-HCl pH 8.0, 100 mM NaCl, 10% glycerol, 1 mM EDTA, detergent (1% NP-40 or 0.1% Elugent™ for E. coli LepB or S. aureus SpsB respectively) and either 2.5 nM of E. coli SPase enzyme or 10 nM of S. aureus SPase enzyme. 40 μl aliquots of the compound dilution series in the protein/buffer solution is transferred to black 384-well polypropylene plates, and 10 μl of fluorogenic peptide at a concentration of 100 μM is added to initiate the reaction. The increase in fluorescence, corresponding to substrate cleavage, is monitored continuously at room temperature for 30 minutes and initial reaction rates are calculated based in the linear increase in fluorescence from the initial 30 minutes of the reaction. Reaction rates are plotted as a function of compound concentration, and IC50 values are determined nonlinear regression analysis (SoftMax® Pro v5.4) of the sigmoidal dose-response curve.

S. aureus SPase = molecular target: T2, S. aureus SPase (Staphylococcus aureus, UniProt P0A070); assay: as above; assay type: biochemical
T2 construct: Full length His-tagged S. aureus SPase protein was expressed similarly; His-tag; made in house; host or cells: E. coli BL21(DE3)
Method: as §2, §3

S. aurues NCTC-8325 = assay: In vitro antimicrobial activity, MIC by broth micro-dilution; assay type: cell-based, S. aureus; conditions: for MIC: Staphylococcus aureus, NCTC8325, read-out: MIC class, S. aurues NCTC-8325
Method: as §1

E. coli ATCC 25922 = assay: as above; assay type: cell-based
Method: as §1

S. epidermidis RP62A = assay: as above; assay type: cell-based; conditions: for MIC: Staphylococcus epidermidis, RP62A, read-out: MIC class, S. epidermidis RP62A
Method: as §1

S. pneumoniae D39 = assay: as above; assay type: cell-based; conditions: for MIC: Streptococcus pneumoniae, D39, read-out: MIC class, S. pneumoniae D39
Method: as §1

[2] = test system: S. aureus NCTC-8325 SpsB(P295); assay: as above; assay type: cell-based; conditions: for MIC: Staphylococcus aureus, NCTC8325, read-out: MIC class, S. aureus NCTC-8325 SpsB(P295)
Method: as §1

[3] = Escherichia coli, ATCC25922; read-out: MIC class, E. coli ATCC 25922

| Structure (SMILES) | MIC [1] | pIC50 (E. coli SPase) | pIC50 (S. aureus SPase) | MIC (S. aurues NCTC-8325) | MIC (E. coli ATCC 25922; [3]) | MIC (S. epidermidis RP62A) | MIC (S. pneumoniae D39) | MIC [2] | MIC (E. coli ATCC 25922; Escherichia coli, ATCC25922, read-out: MIC class, E. coli ATCC 25922) | MIC class, E. col ATCC 25922 LepB(P84L) ([1]; E. col ATCC 25922 LepB(P84L)) | pIC50 (E. coli SPase; fluorogenic peptide cleavage, read-out: IC50 class E. coli SPase) | pIC50 (S. aureus SPase; fluorogenic peptide cleavage, read-out: IC50 class S. aureus SPase) | MIC class, S. aurues NCTC-8325 (S. aurues NCTC-8325; S. aurues NCTC-8325) | MIC class, E. coli ATCC 25922 (E. coli ATCC 25922; E. coli ATCC 25922) | MIC class, S. epidermidis RP62A (S. epidermidis RP62A; S. epidermidis RP62A) | MIC class, S. pneumoniae D39 (S. pneumoniae D39; S. pneumoniae D39) | MIC class, S. aureus NCTC-8325 SpsB(P295) ([2]; S. aureus NCTC-8325 SpsB(P295)) |
| --- | --- | --- | --- | --- | --- | --- | --- | --- | --- | --- | --- | --- | --- | --- | --- | --- | --- |
| CCCCCCCCCCCCCCCC(=O)N(C)[C@H](CO)C(=O)N[C@H](C)C(=O)NCC(=O)N(C)[C@@H]1C(=O)N[C@@H](C)C(=O)N[C@H](C(=O)NC(CO)(CO)CO)Cc2ccc(O)c(c2)-c2cc1ccc2O [Compound 70] | < 8 µg/mL | > 6.00 | < 5.00 | > 64 µg/mL | > 64 µg/mL | < 8 µg/mL | 16 to 64 µg/mL (≈ 16.3 to 65 µM) | > 64 µg/mL |  |  |  |  |  |  |  |  |  |
| CCCCCCCCCCCCCCCC(=O)N(C)[C@H](CO)C(=O)N[C@H](C)C(=O)NCC(=O)N(C)[C@@H]1C(=O)N[C@@H](C)C(=O)N[C@H](C(=O)N[C@H](CO)Cc2cnc[nH]2)Cc2ccc(O)c(c2)-c2cc1ccc2O [Compound 71] | > 64 µg/mL | < 5.00 | < 5.00 | > 64 µg/mL | > 64 µg/mL | > 64 µg/mL | 16 to 64 µg/mL (≈ 15.9 to 63.7 µM) | > 64 µg/mL |  |  |  |  |  |  |  |  |  |
| CCCCCCCCCCCCCCNC(=O)N(C)[C@H](CO)C(=O)N[C@H](C)C(=O)NCC(=O)N(C)[C@@H]1C(=O)N[C@@H](C)C(=O)N[C@H](C(=O)O)Cc2ccc(O)c(c2)-c2cc1ccc2O [Compound 72] | < 8 µg/mL | > 6.00 | > 6.00 | > 64 µg/mL | > 64 µg/mL | < 8 µg/mL | 16 to 64 µg/mL (≈ 18.1 to 72.6 µM) | 16 to 64 µg/mL (≈ 18.1 to 72.6 µM) |  |  |  |  |  |  |  |  |  |
| CCCCCCCCCCCCCCCC(=O)N(C)[C@H](CO)C(=O)N[C@H](C)C(=O)NCC(=O)N(C)[C@@H]1C(=O)N[C@@H](C)C(=O)N[C@H](C(=O)N[C@H](CO)Cc2c[nH]c3ccccc23)Cc2ccc(O)c(c2)-c2cc1ccc2O [Compound 74] | > 64 µg/mL | 5.00 to 6.00 | < 5.00 | > 64 µg/mL | > 64 µg/mL | > 64 µg/mL | 16 to 64 µg/mL (≈ 15.2 to 60.8 µM) | > 64 µg/mL |  |  |  |  |  |  |  |  |  |
| CCCCCCCCCCCCCCCC(=O)N(C)[C@H](CO)C(=O)N[C@H](C)C(=O)NCC(=O)N(C)[C@@H]1C(=O)N[C@@H](C)C(=O)N[C@H](C(=O)NCC(O)C(=O)OC)Cc2ccc(O)c(c2)-c2cc1ccc2O (some centres unmarked) [Compound 75] | < 8 µg/mL | > 6.00 | < 5.00 | > 64 µg/mL | > 64 µg/mL | < 8 µg/mL | < 8 µg/mL | > 64 µg/mL |  |  |  |  |  |  |  |  |  |
| CCCCCCCCCCCCCCCC(=O)N(C)[C@H](CO)C(=O)N[C@H](C)C(=O)NCC(=O)N(C)[C@@H]1C(=O)N[C@@H](C)C(=O)N[C@H](C(=O)O)Cc2ccc(OC)c(c2)-c2cc1ccc2OC [Compound 77] | < 8 µg/mL | < 5.00 | 5.00 to 6.00 | > 64 µg/mL |  | > 64 µg/mL | 16 to 64 µg/mL (≈ 17.6 to 70.4 µM) | 16 to 64 µg/mL (≈ 17.6 to 70.4 µM) | > 64 µg/mL |  |  |  |  |  |  |  |  |
| CCCCCCCCCCCCCCCC(=O)N(C)[C@H](CO)C(=O)N[C@H](C)C(=O)NCC(=O)N(C)[C@@H]1C(=O)N[C@@H](C)C(=O)N[C@H](C(=O)NCC(O)C(=O)O)Cc2ccc(O)c(c2)-c2cc1ccc2O (some centres unmarked) [Compound 78] | > 64 µg/mL | > 6.00 | < 5.00 | > 64 µg/mL | > 64 µg/mL | > 64 µg/mL | 16 to 64 µg/mL (≈ 16.5 to 66.1 µM) | > 64 µg/mL |  |  |  |  |  |  |  |  |  |
| CCCCCCCCCCCCCCCC(=O)N(C)C(CO)C(=O)N[C@H](C)C(=O)NCC(=O)N(C)[C@@H]1C(=O)N[C@@H](C)C(=O)NC(C(=O)NCC(O)C(N)=O)Cc2ccc(O)c(c2)-c2cc1ccc2O (some centres unmarked) [Compound 82] | > 64 µg/mL | 5.00 to 6.00 | < 5.00 | > 64 µg/mL | > 64 µg/mL | > 64 µg/mL | 16 to 64 µg/mL (≈ 16.5 to 66.2 µM) | > 64 µg/mL |  |  |  |  |  |  |  |  |  |
| CCCCCCCCCCCCCCCC(=O)N(C)[C@H](CO)C(=O)N[C@H](C)C(=O)NCC(=O)N(C)[C@@H]1C(=O)N[C@@H](C)C(=O)N[C@H](C(=O)O)CCCc2ccc(O)c(c2)-c2cc1ccc2O [Compound 83] |  |  |  |  |  |  |  |  |  | c (MIC ≤8 μg/ml) | 5.00 to 6.00 | > 6.00 | a (MIC >64 μg/ml) | a (MIC >64 μg/ml) | c (MIC ≤8 μg/ml) | c (MIC ≤8 μg/ml) | b (MIC 16-64 μg/ml) |
| CCCCCCCCCCCCCCCC(=O)N(C)[C@H](CO)C(=O)N[C@H](C)C(=O)N(C)CC(=O)N(C)[C@@H]1C(=O)N[C@@H](C)C(=O)N[C@H](C(=O)O)Cc2ccc(O)c(c2)-c2cc1ccc2O [Compound 84] | > 64 µg/mL | > 6.00 | > 6.00 | > 64 µg/mL | > 64 µg/mL | 16 to 64 µg/mL (≈ 17.9 to 71.5 µM) | < 8 µg/mL | > 64 µg/mL |  |  |  |  |  |  |  |  |  |

Source: patent publication US10501493B2, “Broad spectrum antibiotics” (priority 2011, dated 2019)
